Experiments:
[1] = In vitro permeation (flux) across rat skin, modified Franz diffusion cell; format: in vitro ADME, Sprague-Dawley rats
Description: The flux of a specific formulation can be determined using a modified Franz diffusion cell as discussed herein. First, skin from female Sprague-Dawley rats (200-250 g body weight) can be obtained. The rats are anesthetized, the abdominal skin shaved and then excised. Excess fat and connective tissues are removed. The skin (1.77 cm^2) is sandwiched between the two chambers of a modified Franz diffusion cell, with the surface of the skin facing the upper (donor) chamber of the cell. A measured amount of the androgen containing formulation is applied to the surface of the skin, so that the skin is completely covered. The lower (recipient) chamber is filled with sterile saline, which completely bathes the lower surface of the rat skin. The contents of the recipient chamber are constantly stirred with a magnetic stirrer. Aliquots of the saline in the recipient chamber is removed at predetermined intervals and analyzed by HPLC. The saline remains in constant contact with the skin at all times. The Franz cell is maintained at 37° C. for the duration of each test.
An in vitro modified Franz cell system as described in Example 2 was used to study the permeability of testosterone and MENT from various transdermal dosage forms through rat skin. Various topical cream, gel and patch formulations were tested. The concentration of testosterone and MENT in all of the gels and creams described herein was 2 mg per gram of gel or cream. The following formulations were tested: […]
The gel (nearly identical to formulation T from Example 1) was produced by taking all of the aqueous components and mixing them under medium agitation in one vessel and all the organic, non-aqueous materials and mixing them in a separate vessel. The organic mixture and aqueous mixture were then mixed together using medium agitation provided by a paddle mixer. Of course, a lightning mixer or magnetic stirrer could also be used. The viscosity profile of the gel produced is illustrated in FIG. 20. Steroid permeation (in vitro) across Rat Skin for each of these gel formulations were tested using a two chambers of a modified Franz diffusion cell as previously described. Skin from female Sprague-Dawley rats (200-250 g body weight) were used in these studies. The rats were anesthetized, the abdominal skin was shaved and excised. Excess fat and connective tissues were removed. The skin (1.77 cm^2) was sandwiched between the two chambers of a modified Franz diffusion cell, with the surface of the skin facing the upper (donor) chamber of the cell. Approximately 0.5 gm of gel (1 mg steroid) was applied to the surface of the skin, so that the skin was completely covered with the gel. The lower (recipient) chamber was filled with 11.4 ml of sterile saline, which completely bathed the lower surface of the rat skin. The contents of the recipient chamber was constantly stirred with a magnetic stirrer during the experiment. Aliquots of 200 μL of the saline in the recipient chamber were removed at intervals of 1 h for 4 h; and analyzed by HPLC for either MENT on T. The saline remained in constant contact with the skin at all times. The Franz cell was maintained at 37° C. for the duration of the test.

[2] = Bioavailability of transdermal MENT gel formulations in rabbits (serum MENT by radioimmunoassay); format: in vivo, New Zealand white rabbits
Experimental: The bioavailability of three transdermal MENT gel formulations (2 mg MENT/g gel) (formulations O, F and T) were studied in rabbits. Three New Zealand white rabbits weighing 3.5-4.5 kg were used in each group. To each animal, 0.2 g gel (0.4 mg MENT) or 0.4 g gel (0.8 mg MENT) was applied to 5×5 cm or 10×10 cm area of shaved skin for three consecutive days. On days 1 and 3, blood samples were collected at 0, 1, 2, 4 and 8 hours after application of the gel. Serum MENT levels were determined by radioimmunoassay.

C[C@@H]1CC2=CC(=O)CC[C@@H]2[C@H]2CC[C@]3(C)[C@@H](O)CC[C@H]3[C@@H]21 [MENT, 7α-methyl-19-nortestosterone]
Permeation (concentrations and flux rates) through rat skin compared with testosterone ([1]; all other formulations (1 patch, 2 creams and 7 gels), FIGS. 3 to 7 and 9 to 13): considerably higher concentrations and flux rates than that of testosterone
Flux across rat skin compared with testosterone ([1]; certain dosage forms (FIGS. 3, 4, 6, 7, 10, 11 and 12)): more than double that of testosterone
Rate of skin penetration compared with T ([1]; gel of Example 2, 0.5 gm gel (1 mg steroid), 1-4 h, FIG. 1): faster rate than T
Steroid flux compared with T ([1]; gel of Example 2, each time period studied, FIG. 2): greater at each time period studied
Flux compared with MENT Ac ([1]; general statement, no data shown): generally greater than that of MENT Ac
Flux compared with testosterone ([1]; summary statement, depending upon the particular transdermal formulation): as much as twice that of testosterone or more
Dose dependence of bioavailability ([2]; 0.4 vs 0.8 mg MENT, Table 1): dose dependent
Permeation through rabbit skin / serum levels ([2]; gel formulations O, F and T, FIGS. 14 to 19): permeated through rabbit skin and give measurable serum levels

Source: patent publication US20040126418A1, “Transdermal administration of MENT” (The Population Council, Inc., priority 1997, published 2004)
